Laboratory results as given in paper PMC11718441, “Bis-3-chloropiperidines: a novel motif for anthelmintic drug design” (RSC Advances, 2025).
Read-outs that look alike come from different tables or passages of the source.

Legend:
[1] = tested on: Escherichia coli ATCC35218; experiment: microbe, parasite or virus in culture; format: cell-based; details: ATCC35218, read-out: MIC Ec
Description: (§1) The minimum inhibitory concentration (MIC) of the synthesized compounds was initially determined against three microbial indicator strains (Escherichia coli ATCC35218, […] ATCC33592, Septoria tritici MUCL45408). […]
(§2) 2. Microbial and parasitological studies
(§3) The minimum inhibitory concentration (MIC) of the synthesized compounds was determined against three microbial indicator strains (E. coli ATCC35218, S. aureus ATCC33592 and S. tritici MUCL45408) as previously described.1,2 All samples were dissolved in DMSO and tested in triplicate. Briefly, a pre-culture of E. coli and S. aureus was prepared by incubating the strains in cation adjusted Mueller Hinton 2 broth (Becton Dickinson, Sparks, NV, USA) at 37°C and 180 rpm overnight. The cell density of adjusted to 5 × 10^5 cells/mL before assays were incubated at 37 °C, 180 rpm and 85% rH. Three distinct dilution series of standard antibiotics (gentamicin, rifampicin, […]
(§4) medium without test compound or positive control was used as negative control.
(§5) Medium background was averaged from 5 replicates. The turbidity of each well was […]

[2] = tested on: S. aureus ATCC33592; experiment: microbe, parasite or virus in culture; format: cell-based; details: Staphylococcus aureus, ATCC33592, read-out: MIC Sa
Description: as §1, §2, §3, §4, §5

[3] = tested on: Septoria tritici MUCL45408; experiment: Minimum inhibitory concentration (MIC), S. tritici (ATP quantification); format: cell-based; details: Zymoseptoria tritici, read-out: MIC St
Description: as §1, §2
The minimum inhibitory concentration (MIC) of the synthesized compounds was determined against three microbial indicator strains (E. coli ATCC35218, S. aureus ATCC33592 and S. tritici MUCL45408) as previously described.1,2 All samples were dissolved in DMSO and tested in triplicate. Briefly, a pre-culture of E. coli and S. aureus was prepared by incubating the strains in cation adjusted Mueller Hinton 2 broth (Becton Dickinson, Sparks, NV, USA) at 37°C and 180 rpm overnight. The cell density of adjusted to 5 × 10^5 cells/mL before assays were incubated at 37 °C, 180 rpm and 85% rH. Three distinct dilution series of standard antibiotics (gentamicin, rifampicin, and tetracycline) were used as positive controls on each assay plate. Inoculated medium without test compound or positive control was used as negative control.
Medium background was averaged from 5 replicates. The turbidity of each well was measured with a microplate spectrophotometer at 600 nm (LUMIstar® Omega, BMG Labtech) and growth inhibition was calculated relative to the absorption of the controls. For S. tritici MUCL45408 inoculated at a density of 1 × 10^5 cells/mL in potato […]
dextrose medium. Septoria assay plates were incubated for 4 days at 25 °C, 180 rpm and 85% rH. Tebuconazole, amphotericin B, and nystatin were used as positive controls. Cell viability was evaluated via ATP quantification (BacTiter-Glo™, Promega GmbH, Walldorf, Germany) according to the manufacturer’s instructions. […]

[4] = tested on: C. elegans N2; experiment: whole plant or invertebrate; format: cell-based, Caenorhabditis elegans; details: Caenorhabditis elegans, 48 h, read-out: MMIC N2
Text: (§6) The cuticle of C. elegans strain DC19 is known to be more permeable for small molecules compared to the wildtype N2.[30] DC19 is thereby considered an informative drug-sensitive test organism. In our assays, we determined the minimum mobility inhibitory concentration (MMIC) as a proxy for anthelmintic activity. […] In contrast, MMICs of some small molecule anthelmintics such as albendazole, mebendazole or PF-1022A were lower for DC19 (Fig. S1 ^†). […]
(§7) 2.2 In vitro tests against Caenorhabditis Elegans
(§8) The minimal motility inhibitory concentration (MMIC) of compounds 1-22 against C. elegans was determined as described before.3 Both strains, C. elegans N2 and DC19 were treated identically. Briefly, pre-cultures of C.elegans were kept on NGM agar plates infused with auxotrophic E.coli OP50 as food source.4 After 4 days the plates contained sufficient gravid worms, respectively. Worms were washed from the plates with M9 buffer using wide bore pipette tips. Egg preparation was carried out by treating the harvested worms with an alkaline hypochlorite solution (5 M NaOH + 5 % NaOCl 1:2) in polypropylene tubes. Larvae and adult […]
(§9) We carried out 3 washing steps (M9 buffer) to remove carry-over hypochlorite solution. Subsequently, the eggs were incubated overnight in NGM broth on a rotator to yield synchronized hatched L1/L2 larvae. The larvae solution was adjusted to 100 worms/mL and supplemented with cholesterol (5 µg/mL), carbenicillin (25 µg/mL) and E.coli OP50 (0.5%). This assay solution was distributed into 96 well plates and incubated with a dilution series of compounds 1-22 (64-0.5 µg/mL). An additional eight-point dilution series of ivermecin (40 – 0.3 ng/mL) was used as positive control on each assay plate. Solvent background was controlled by supplementation of pure DMSO without any compound. Assays were incubated for 2 days at room temperature. Finally, a cell imaging multimode reader (Cytation™ 5) was used to record short videos (1.5 seconds) of each individual test well. The videos were used to evaluate the worm motility.

[5] = tested on: Schistosoma mansoni; experiment: In vitro tests against Schistosoma mansoni (vitality parameters of adult worm pairs); format: cell-based; details: for activity against S. mansoni (100% effect strength in one parameter within 7 days = active): 10 or 20 μM
Description: Subsequently, we tested whether compounds with nematocidal activity display a broader activity also against parasitic flatworms. To this end, in vitro tests against the blood fluke S. mansoni were conducted (Fig. 4). The worms were incubated in presence of 10 and 20 μM of compounds 1–22 and phenotypic vitality parameters (separation of worm pairs, detachment of suckers from the bottom of the well and weakening of body movements) were assessed as previously described.[31] Compounds reaching 100% effect strength in one of the parameters within 7 days were considered active. Reduction of motility is considered most relevant for antischistosomal drug candidates.[32] In addition, loss of sucker activity would make parasites drifting off from their host habitat (mesenteric veins) and with pair separation, the production of pathology-causing eggs eventually ceases.[33] […] For some molecular targets e.g. glutamate and GABA chloride channels (ivermecin, abamectin) and β-tubulin (albendazole, mebendazole) the C. elegans assays results were transferable to Schistosoma, while for others e.g. acetylcholin mimetic (levamisole) the C. elegans MMIC was not predicative (Fig. S1 ^†).
2.2 Parasitological studies
Animal experiments were performed in accordance with Directive 2010/63/EU on the protection of animals used for scientific purposes and the German Animal Welfare Act. The experiments were approved by the Regional Council (Regierungspraesidium) Giessen (V54 – […]
A Liberian strain of S. mansoni was maintained in the freshwater snail Biomphalaria glabrata as intermediate host and Syrian hamsters (Mesocricetus auratus) as final host (Janvier Labs, France).5,6 Hamsters were infected at 8 weeks of age with 1,750 cercariae by using the paddling method.7 Adult worms were collected at 46 days p.i. by hepatoportal perfusion and cultured in M199 medium (Sigma-Aldrich, Germany) supplemented with 10% Newborn Calf Serum (NCS, Sigma-Aldrich), 1% 1 M HEPES (ThermoFisher Scientific, USA) and 1% ABAM solution (10,000 units/ml penicillin, 10 mg/ml streptomycin and […] amphotericin B; Sigma-Aldrich, Germany) at 37 °C, 5% CO2 and humidified atmosphere.
2.2.3. In vitro tests against Schistosoma mansoni
Test compounds were added at 10 µM or 20 µM in supplemented M199 medium to schistosomes (5 worm pairs per replicate) followed by a 7 d in vitro culture. Worms receiving the solvent DMSO at equal dilution served as negative control. The following vitality parameters were assessed every 24 h by bright field microscopy using a Leica DM IL inverted microscope and x2.5 objective lens: separation of worm pairs into male and female worms; detachment of suckers from the bottom; and weakening of body movements. Worm motility was scored as described previously, 8 with the scores 3 (normal motility), 2 (reduced motility), 1 (minimal and sporadic movements), 0 (no movements within 20 sec; dead worms). An average score of all worms per well was calculated to obtain a motility score. An average motility score of 0, separation of all pairs or detachment of all worms per well was considered

[6] = tested on: C. elegans strains N2 and DC19; experiment: MMIC against C. elegans, strains N2 and DC19 reported together or strain not stated; format: cell-based; details: Caenorhabditis elegans, 48 h
Text: as §6, §7, §8, §9

[7] = tested on: MDCK II cells; experiment: In vitro cytotoxicity, CellTiter-Glo, MDCK II cells; details: 100 μM; for MDCKII cytotoxicity: 48 h, cell viability less than 80% relative to DMSO control = cytotoxic
[8] = tested on: C. elegans DC19; experiment: whole plant or invertebrate; format: cell-based, Caenorhabditis elegans; details: Caenorhabditis elegans, 48 h, read-out: MMIC DC19
Text: as §6, §7, §8, §9

[9] = C. elegans, read-out: MMIC N2 and DC19
[10] = 96 h, S. tritici MUCL45408, 4 days

Structure (SMILES) | MIC [1] [µg/mL] | MIC [2] [µg/mL] | MIC ([3]; MUCL45408, 96 h) [µg/mL] | minimal effective concentration [4] [µg/mL] | lethal effects ([5]; 20 μM, after seven days) | sucker detachment ([5]; 20 μM, after three days) | activity against S. mansoni (100% effect strength in one parameter within 7 days = active) [5] | minimal effective concentration [6, 9] [µg/mL] | cytotoxicity against MDCK II (in words) [7] | MDCKII cytotoxicity [7] | MIC [3, 10] [µg/mL] | minimal effective concentration ([8]; C. elegans DC19, 2 days) [µg/mL] | minimal effective concentration ([4]; C. elegans N2, 2 days) [µg/mL] | phenotypic changes / vitality parameters of Schistosoma ([5]; up to 20 μM, in comparison to the untreated control) | sucker detachment of Schistosoma worm pairs ([5]; 10 μM) | motility score ([5]; score 3 normal motility to 0 dead, paragraph on 20 μM) | minimal effective concentration [8] [µg/mL] | minimal effective concentration ([6]; read-out: MMIC N2 and DC19, C. elegans) [µg/mL]
CN(C)c1cc(CN2CC(Cl)CC(C)(C)C2)cc(CN2CC(Cl)CC(C)(C)C2)c1 (stereo not drawn) [Compound 3] | > 64 | > 64 | > 64 | 16 | lethal effects | sucker detachment already after three days | showed an effect on S. mansoni | < 20 | cytotoxic | + (“+” (toxic)) | – | – | – | – | – | – | – | –
Cc1cc(CN2CC(Cl)CC(C)(C)C2)cc(CN2CC(Cl)CC(C)(C)C2)c1 (stereo not drawn) [Compound 7] | > 64 | > 64 | – | – | – | – | showed an effect on S. mansoni | < 20 | – | – | > 64 | 16 | – | – | – | – | – | –
CC1(C)CC(Cl)CN(Cc2ccccc2CN2CC(Cl)CC(C)(C)C2)C1 (stereo not drawn) [Compound 8] | > 64 | > 64 | – | – | – | – | – | < 20 | – | – | – | – | 8 | did not inflict any phenotypic changes | – | – | – | –
CC1(C)CC(Cl)CN([C@H]2CC[C@H](N3CC(Cl)CC(C)(C)C3)CC2)C1 (stereo partly drawn) [Compound 10] | > 64 | > 64 | – | – | – | – | – | ≥ 64 | – | – | > 64 | > 64 | > 64 | – | – | – | – | –
CC1(C)CC(Cl)CN(CCCC[C@@H](C(=O)OCCc2ccccc2)N2CC(Cl)CC(C)(C)C2)C1 (stereo partly drawn) [Compound 12] | > 64 | > 64 | – | – | – | – | showed an effect on S. mansoni | < 20 | – | – | > 64 | 16 | – | – | full sucker detachment | 1–1.2 | – | –
CC1(C)CC(Cl)CN(CCN2CC(Cl)CC(C)(C)C2)C1 (stereo not drawn) [Compound 15] | > 64 | > 64 | > 64 | > 64 | – | – | – | – | – | + (“+” (toxic)) | – | – | – | – | – | – | > 64 | ≥ 64
CCCCN1CC(Cl)CC2(CC2)C1 (stereo not drawn) [Compound 17] | > 64 | > 64 | – | – | – | – | – | – | – | − (“−” (not toxic)) | > 64 | > 64 | > 64 | – | – | – | – | –
CC1(C)CC(Cl)CN(Cc2ccccc2)C1 (stereo not drawn) [Compound 18] | > 64 | > 64 | > 64 | > 64 | – | – | – | – | – | + (“+” (toxic)) | – | – | – | – | – | – | 32 | –
Cl[C@H]1CCCN(Cc2ccccc2)C1 [Compound 19] | > 64 | > 64 | – | – | – | – | – | – | – | − (“−” (not toxic)) | > 64 | > 64 | > 64 | – | – | – | – | –
Cl[C@@H]1CCCN(Cc2ccccc2)C1 [Compound 20] | > 64 | > 64 | – | – | – | – | – | – | – | − (“−” (not toxic)) | > 64 | > 64 | > 64 | – | – | – | – | –
COc1cc(CN2CC(O)CC(C)(C)C2)cc(CN2CC(O)CC(C)(C)C2)c1 (stereo not drawn) [Compound 22] | > 64 | > 64 | – | – | – | – | – | – | – | − (“−” (not toxic)) | > 64 | > 64 | > 64 | – | – | – | – | –
